Laboratory results as given in patent US11370825B2, “Polypeptides, cells, and methods involving engineered CD16” (Regents of the University of Minnesota, priority 2014, dated 2022).

What was measured:
[1] = system: NK92 cells; experiment: Cell surface CD16a levels on transduced NK92 cells after activation, flow cytometry; assay type: cell-based, human
Description: FIG. 4. Effects of the engineered S197P mutation on CD16a shedding in NK cells. NK92 cells transduced with empty vector (vector only), CD16a, or CD16a/S197P were treated without (Unstim.) or with PMA (100 ng/ml) for 30 minutes at 37° C. (A), with IL-12 and IL-18 (100 ng/ml and 400 ng/ml, respectively) for 24 hours at 37° C. (B), or with Raji cells and rituximab for 60 minutes at 37° C. (C). Cell surface levels of CD16a were determined by flow cytometry. Isotype-matched negative control antibody staining is indicated by a dotted line. (D) Parent NK92 cells and transduced cells expressing CD16a or CD16a/S197P were treated with Raji cells and rituximab in the presence or absence of the ADAM17 inhibitor BMS566394 (5 μM) for 60 minutes at 37° C. Soluble CD16a levels were determined by ELISA. Each treatment condition was repeated three times and the data are representative of three independent experiments. Bar graphs show mean±SD. Statistical significance is indicated as ***P<0.001. (E) NK92 cells expressing CD16a or CD16a/S197P were stained with the anti-ADAM17 mAbs M220, 623, 633, or an isotype-matched negative control antibody, as indicated. (F) CD56^+CD45^+ NK cells derived from mock-transduced iPSCs (left panel) or iPSCs expressing recombinant CD16a or CD16a/S197P (right panels) were incubated with or without K562 target cells for four hours at 37° C. For all histogram plots, the x-axis=Log 10 fluorescence, the y-axis=cell number, and the data are representative of at least 3 independent experiments.
HEK293 cells (a human embryonic kidney cell line) and NK92 cells (a human NK cell line) (ATCC, Manassas, Va.) were cultured according to the depository's instructions. HEK293 cells were transiently transfected with pcDNA3.1 with or without CD16b, CD16b/S197P, and/or L-selectin using Lipofectamine 2000 (Invitrogen, Carlsbad, Calif.) according to the manufacturer's instructions. […] Construct expression was assessed by EGFP fluorescence and CD16 staining, as determined by flow cytometry. […]

[2] = system: ADAM17; experiment: Soluble CD16a released from transfected HEK293 cells stably expressing human γ chain, ELISA (shedding); assay type: cell-based; conditions: untreated and PMA-treated HEK293 cells stably expressing human γ chain
Description: FIG. 3. Effects of the engineered S197P mutation on CD16a and CD16b shedding. Transfected HEK293 (human embryonic kidney) cells separately expressed CD16b and CD16b/S197P (A) or CD16a and CD16a/S197P (B) at similar levels, as determined by flow cytometry (left panels). The different transfectants were treated with or without PMA (15 ng/ml for 30 minutes at 37° C.) and soluble levels of CD16 in the media supernatant were quantified by ELISA (right panels). Each treatment condition was repeated three times for each experiment and the data are representative of three independent experiments. Bar graphs show mean±SD. Statistical significance is indicated as ***P<0.001. […] Surface levels of L-selectin and CD16b/S197P on transfected and mock-transfected cells were measured using flow cytometry (histogram plots). Transfectants expressing L-selectin or L-selectin and CD16b/S197P were incubated in the presence or absence of PMA for 30 minutes at 37° C., and the mean fluorescence intensity (MFI) of L-selectin staining determined (bar graph). […] For all histogram plots, the x-axis=Log 10 fluorescence and the y-axis=cell number.
HEK293 cells (a human embryonic kidney cell line) and NK92 cells (a human NK cell line) (ATCC, Manassas, Va.) were cultured according to the depository's instructions. […] Construct expression was assessed by EGFP fluorescence and CD16 staining, as determined by flow cytometry. […]

Row | Substance | down-regulation in cell surface expression of CD16 ([1]; IL-12 100 ng/ml and IL-18 400 ng/ml, 24 hours at 37° C.) | down-regulation in cell surface expression of CD16 ([1]; PMA 100 ng/ml, 30 minutes at 37° C.) | down-regulation in cell surface expression of CD16 ([1]; Raji cells treated with rituximab, 60 minutes at 37° C.) | soluble levels of receptor in media supernatant compared to CD16a [2]
1 | CD16a: Wild-type human IgG Fc receptor CD16a (FcγRIIIa), valine allelic variant, recombinant comparator [reference compound] | appreciable down-regulation | marked down-regulation | induced the down-regulation | –
2 | CD16a/S197P: Human CD16a (FcγRIIIa, SEQ ID NO:1) with serine-197 substituted by proline in the membrane proximal cleavage region; expressed recombinantly in cells | – | – | – | significantly lower levels
